The results in this text go back to patent US20120190666A1, “Heteroaryl Compounds as PIKK Inhibitors” (Amgen Inc., priority 2009, published 2012).

One experiment deals with mTOR (Homo sapiens, UniProt P42345). The experiment is described as follows: mTOR LanthaScreen (TR-FRET, phosphorylation of 4EBP1). As to conditions: phosphorylation of GFP-4E-BP1, 10 μM ATP, 90 minutes. It is filed as biochemical. The protocol:
The mTOR LanthaScreen is a TR-FRET assay measuring the phosphorylation of mTOR's substrate 4EBP1. 384 well compound plates were prepared containing 1 μl of compound per well starting at 5 mM and diluted 1:2 across the row, resulting in a 22 well serial dilution. 24 μl of assay buffer (Invitrogen, PV4794) with 2 mM DTT was added to the compound plate in rows 1-24 using the VELOCITY 11™ VPREP™ 384 ST resulting in a DMSO concentration of 4%. The compound plate was mixed and 2.5 μl of serially diluted compound or controls was added to the assay plate (Costar, 3658).
The assay was conducted on the PerkinElmer® FlexDrop PLUS. A 5 μl mix of 800 nM GFP-4E-BP1 (Invitrogen, PV4759) and 20 μM ATP (Amgen) was added to rows 1-24. 2.5 μl of 0.6 μg/ml of mTOR Enzyme (Amgen) was added to rows 1-23. 2.5 μl of assay buffer was added to row 24 for the low control. The final concentration of the compounds was 50 μM serially diluted to 23.84 pM in 1% DMSO. […] The final concentrations in the assay reagents were 400 nM GFP-4E-BP1, 10 μM of ATP and 0.15 μg/ml of mTOR enzyme. The compound, enzyme, and substrate were incubated for 90 minutes. At this point, 10 μl of stop solution was added (20 mM Tris, pH 7.5 (Invitrogen, 15567-027), 0.02% Sodium Azide (Teknova, S0208), 0.01% NP-40 (Roche, 11754599001), 20 mM EDTA (Invitrogen, 15575-038) and 4 nM of Tb-anti-p4E-BP1 (Invitrogen, PV4758)) for a final concentration of 2 nM of Tb-anti-p4E-BP1.
Sixty minutes later the plates were read on the PerkinElmer® EnVision™ 2103 Multilable Reader using the Excitation filter 340 nm and the Emission filters 520 nm and 495 nm.
(TR-FRET usually uses a lanthanide donor and a delayed reading to cut background.)

Experiment [1] concerns phosphorylation of Akt at Serine 473 in U87 MG cells. In words: pAkt AlphaScreen (U87 cell). Particulars: Homo sapiens, U-87 MG, 2 h; pAkt at Serine 473, U87 MG cells, two hours with compound. It is filed as cell-based. As to the method: The pAkt AlphaScreen® assay (PerkinElmer, Waltham, Mass.) determines whether there is phosphorylation of Akt at Serine 473 by recruitment of a phosphospecific antibody. This assay was performed using U87 MG cells. The U87 growth media consists of MEM (Gibco, Carlsbad, Calif.) supplemented with 10% FBS (Gibco), 1× Non-Essential Amino Acids (Gibco,) and 1× Penicillin/Streptomycin/Glutamine (Gibco). The cells were maintained weekly using 0.05% Trypsin (Gibco) and replated in 150 mm TC— Treated Culture Dishes (Corning, Corning, N.Y.).
The first day of the assay, the adherent cells were trypsinized, media was added to the loose cells and cells were mixed to a homogenous mixture. 0.5 ml of the homogenous mixture was counted on the Beckman Coulter® Vi-Cell™ XR (Fullerton, Calif.). 50 frames of cells were counted and the number of viable cells was determined. The cells were then diluted to 0.25 million cells per ml, and centrifuged at 200 rcf for 5 minutes. The media was removed and the cells were reconstituted in fresh media for plating. The cells were plated at 20 μl per well on the PerkinElmer® FlexDrop PLUS in Low Volume 384 Well White Tissue Culture Plates (Corning) with a final cell density of 5K cells per well. The plates were incubated overnight at 37° Celsius, 5% CO2.
On the second day, the compound plates were prepared, the cells were treated with compound and the pAkt reaction mix was added to the cell lysate. 384 well compound plates were prepared containing 1 μl of compound per well starting at 5 mM and diluted 1:2 across the row, resulting in a 22 well serial dilution. 39 μl of growth media was added to the compound plate in rows 1-22 using the PerkinElmer® FlexDrop PLUS resulting in a DMSO concentration of 2.5%. The cell plates and diluted compound plates were put onto the VELOCITY11™ VPREP™ 384 ST where the compound plate was mixed and 5 μl of serially diluted compound or controls was added to the cell plate. The final concentration of the compounds was 25 μM serially diluted to 11.9 pM in 0.5% DMSO.
The cell plates were then incubated with compound for two hours at 37° C., 5% CO2. After two hours, the media in the cell plates was aspirated using the BioTek® ELx405HT plate washer (Winooski, Vt.) removing the majority of media and compound without disturbing the adherent U87 cells. The following assay reagents are components of the SureFire® Akt (Ser 473) Phosphorylation 50K Point Kit (TGR BioSciences, Adelaide, Austalia) and an IgG Detection Kit (PerkinElmer, Waltham, Mass.). 5 μl of 1× Lysis Buffer was added to each well using the PerkinElmer® FlexDrop PLUS. The plates were then incubated at room temperature on a shaker for ten minutes. The AlphaScreen® reaction was prepared under low light conditions (subdued or green light) including p-Aid (Ser 473) Reaction Buffer, Dilution Buffer, Activation Buffer, Acceptor Beads and Donor Beads at a ratio of 40:20:10:1:1 respectively. The AlphaScreen® reaction was added to the cell lysate at 6 μl per well using the PerkinElmer® FlexDrop PLUS. The plates were placed in a humid environment to reduce edge effects and incubated overnight at room temperature with restricted air flow in the dark.
On the final day of the experiment, the plates were read on the PerkinElmer® EnVision™ 2103 Multilable Reader using the standard AlphaScreen® readout. The POC is calculated and the data is analyzed to report the IC50 IP for pAkt at Serine 473.
Activity data for the compounds tested in the PI3K cell based Akt assay is provided in Table 1 under the column heading U87

On to `Cc1nc(N)nc(-c2c(Nc3cc[nH]n3)nc3ccccn23)n1` [Cpd 1, 3-(4-amino-6-methyl-1,3,5-triazin-2-yl)-N-(1H-pyrazol-3-yl)imidazo[1,2-a]pyridin-2-amine], for which the IC50 (as a rule, the concentration that inhibits the measured activity by half) against mTOR is 12 nM; in experiment [1] it was 20 nM.

For `Cc1nc(-c2c(Nc3cccc(O)c3)nc3ccccn23)c2nc[nH]c2n1` [Cpd 2], the IC50 was 24 nM against mTOR and 50 nM in experiment [1].

Turning to `CNc1nc(C)nc(-c2c(Nc3cc[nH]n3)nc3ccccn23)n1` [Cpd 3, 3-(4-methyl-6-(methylamino)-1,3,5-triazin-2-yl)-N-(1H-pyrazol-3-yl)imidazo[1,2-a]pyridin-2-amine], the concentration for half-maximal inhibition (IC50) on mTOR stood at 53 nM; in experiment [1], 50 nM.

Turning to `Cc1nc(N)cc(-c2c(Nc3cc[nH]n3)nc3cccnn23)n1` [Cpd 7, 3-(6-amino-2-methylpyrimidin-4-yl)-N-(1H-pyrazol-3-yl)imidazo[1,2-b]pyridazin-2-amine], the half-maximal inhibitory concentration (IC50) was found to be 11 nM on mTOR and 20 nM in experiment [1].

Regarding `Cc1nc(N)cc(-n2nc(C(=O)Nc3cccnc3)cc2Nc2ccn[nH]2)n1` [Cpd 11, 5-(1H-pyrazol-5-ylamino)-1-(6-amino-2-methylpyrimidin-4-yl)-N-(pyridin-3-yl)-1H-pyrazole-3-carboxamide], the IC50 turned out to be 820 nM at mTOR and 600 nM in experiment [1].

Regarding `Cc1nc(N)cc(-n2nc(C(=O)N3CCOCC3)cc2Nc2ccn[nH]2)n1` [Cpd 13, (5-(1H-pyrazol-5-ylamino)-1-(6-amino-2-methylpyrimidin-4-yl)-1H-pyrazol-3-yl)(morpholino)methanone], the IC50 at mTOR turned out to be 100 nM; in experiment [1], 280 nM.

For the molecule `CNC(=O)c1cc(Nc2ccn[nH]2)n(-c2cc(N)nc(C)n2)n1` [Cpd 14, 5-(1H-pyrazol-5-ylamino)-1-(6-amino-2-methylpyrimidin-4-yl)-N-methyl-1H-pyrazole-3-carboxamide], the IC50 on mTOR worked out at 120 nM; in experiment [1], 440 nM.

Regarding `CCOC(=O)c1cc(Nc2cc[nH]n2)n(-c2cc(N)nc(C)n2)n1` [Cpd 15, ethyl 5-(1H-pyrazol-3-ylamino)-1-(6-amino-2-methylpyrimidin-4-yl)-1H-pyrazole-3-carboxylate], the IC50 on mTOR is 144 nM; in experiment [1], 110 nM.

On to `Cc1nc(N)cc(-n2nc(C(=O)NC3CC3)cc2Nc2cc[nH]n2)n1` [Cpd 16, 5-(1H-pyrazol-5-ylamino)-1-(6-amino-2-methylpyrimidin-4-yl)-N-cyclopropyl-1H-pyrazole-3-carboxamide], for which the IC50 against mTOR is 380 nM; in experiment [1], 350 nM.

On to `Cc1cc(Nc2cc[nH]n2)n(-c2cc(N)nc(C)n2)n1` [Cpd 18, 6-(5-(1H-pyrazol-3-ylamino)-3-methyl-1H-pyrazol-1-yl)-2-methylpyrimidin-4-amine], for which the IC50 turned out to be 860 nM against mTOR and 710 nM in experiment [1].

Consider `COc1ccc(Nc2cc(C)nn2-c2cc(N)nc(C)n2)cn1` [Cpd 24, 6-(5-(6-methoxypyridin-3-ylamino)-3-methyl-1H-pyrazol-1-yl)-2-methylpyrimidin-4-amine], for which the IC50 on mTOR was more than 50000 nM; in experiment [1], 870 nM.

On to `Cc1nc(Nc2ccccc2F)cc(-c2c(Nc3cc[nH]n3)nc3cccnn23)n1` [Cpd 31, 3-(6-((2-fluorophenyl)amino)-2-methyl-4-pyrimidinyl)-N-1H-pyrazol-3-ylimidazo[1,2-b]pyridazin-2-amine], for which the values for the IC50 (against mTOR; in experiment [1]) were 6180 nM and 790 nM, respectively.

For `COc1ccc(Nc2cc(-c3c(Nc4cc[nH]n4)nc4cccnn34)nc(C)n2)cc1` [Cpd 33], the IC50 at mTOR is 2840 nM; in experiment [1] it was 290 nM.

Consider `Cc1nc(Nc2cccnn2)cc(-c2c(Nc3ccn(C)n3)nc3cccnn23)n1` [Cpd 34, N-(1-methyl-1H-pyrazol-3-yl)-3-(2-methyl-6-(3-pyridazinylamino)-4-pyrimidinyl)imidazo[1,2-b]pyridazin-2-amine], for which the IC50 against mTOR was 440 nM; in experiment [1], 60 nM.

For the molecule `Cc1nc(Nc2ccc(N3CCN(C)CC3)nn2)cc(-c2c(Nc3cc[nH]n3)nc3cccnn23)n1` [Cpd 35, 3-(2-methyl-6-((6-(4-methyl-1-piperazinyl)-3-pyridazinyl)amino)-4-pyrimidinyl)-N-1H-pyrazol-3-ylimidazo[1,2-b]pyridazin-2-amine], the IC50 against mTOR came to 10 nM; in experiment [1] it was 70 nM.

Turning to `CCNC(=O)Nc1ccc(Nc2nc3ccccn3c2-c2cc(N)nc(C)n2)cc1` [Cpd 40, 1-(4-((3-(6-amino-2-methyl-4-pyrimidinyl)imidazo[1,2-a]pyridin-2-yl)amino)phenyl)-3-ethylurea], the IC50 worked out at 10 nM against mTOR and 60 nM in experiment [1].

For `Cc1nc(N)cc(-c2c(Nc3ccc4cc[nH]c4n3)nc3ccccn23)n1` [Cpd 41, 3-(6-amino-2-methyl-4-pyrimidinyl)-N-1H-pyrrolo[2,3-b]pyridin-6-ylimidazo[1,2-a]pyridin-2-amine], the half-maximal inhibitory concentration (IC50) (against mTOR; in experiment [1]) was 400 nM throughout.

Consider `Cc1nc(Nc2ccc(N3CCOCC3)nn2)cc(-c2c(Nc3cc[nH]n3)nc3ccccn23)n1` [Cpd 49, 3-(2-methyl-6-((6-(4-morpholinyl)-3-pyridazinyl)amino)-4-pyrimidinyl)-N-1H-pyrazol-3-ylimidazo[1,2-a]pyridin-2-amine], for which the IC50 on mTOR amounted to 80 nM; in experiment [1], 60 nM.

For `COCCOc1cnnc(Nc2cc(-c3c(Nc4ccc(NC(C)=O)cc4)nc4cccnn34)nc(C)n2)c1` [Cpd 53, N-(4-((3-(6-((5-(2-methoxyethoxy)-3-pyridazinyl)amino)-2-methyl-4-pyrimidinyl)imidazo[1,2-b]pyridazin-2-yl)amino)phenyl)acetamide], the IC50 was 1 nM against mTOR and 10 nM in experiment [1].

Regarding `Cc1nc(N)cc(-c2c(Nc3ccc(NC(=O)Nc4ccncc4)cc3)nc3ccccn23)n1` [Cpd 57, 1-(4-((3-(6-amino-2-methyl-4-pyrimidinyl)imidazo[1,2-a]pyridin-2-yl)amino)phenyl)-3-(4-pyridinyl)urea], the results for the IC50 (against mTOR; in experiment [1]) were 10 nM and 70 nM, respectively.

`Cc1nc(Nc2cc(OCC(F)(F)F)cnn2)cc(-c2c(Nc3cc[nH]n3)nc3cccnn23)n1` [Cpd 60, 3-(2-methyl-6-((5-(2,2,2-trifluoroethoxy)-3-pyridazinyl)amino)-4-pyrimidinyl)-N-1H-pyrazol-3-ylimidazo[1,2-b]pyridazin-2-amine]: the IC50 was found to be 10 nM at mTOR and 20 nM in experiment [1].
